Laboratory results published in PubChem BioAssay AID1259407 (Chemical Carcinogenesis Research Information System (CCRIS), 2018).
Calls of active or inactive are those of the source. The rule behind the calls is not given here.

Test system: CCRIS mutagenicity, Ames/micronucleus/aberration tests
Experiment: CCRIS mutagenicity studies
[1] = Test System: AMES SALMONELLA TYPHIMURIUM, Strain/Indicator: TA100, Metabolic Activation: NONE, Method: PREINCUBATION

Measured: mutagenic call

CC(=O)CN(C)N=O
active: Test System: AMES SALMONELLA TYPHIMURIUM, Strain/Indicator: TA100, Metabolic Activation: HAMSTER, LIVER, S-9, 3-METHYLCHOLANTHRENE, Method: PREINCUBATION active; positive | Test System: AMES SALMONELLA TYPHIMURIUM, Strain/Indicator: TA100, Metabolic Activation: HAMSTER, LIVER, S-9, PHENOBARBITAL, Method: PREINCUBATION active; positive | Test System: AMES SALMONELLA TYPHIMURIUM, Strain/Indicator: TA100, Metabolic Activation: MONKEY, LIVER, S-9, Method: PREINCUBATION active; positive | Test System: AMES SALMONELLA TYPHIMURIUM, Strain/Indicator: TA100, Metabolic Activation: MOUSE, LIVER, S-9, 3-METHYLCHOLANTHRENE, Method: PREINCUBATION active; positive | Test System: AMES SALMONELLA TYPHIMURIUM, Strain/Indicator: TA100, Metabolic Activation: MOUSE, LIVER, S-9, PHENOBARBITAL, Method: PREINCUBATION active; positive | Test System: AMES SALMONELLA TYPHIMURIUM, Strain/Indicator: TA100, Metabolic Activation: MOUSE, LIVER, S-9, Method: PREINCUBATION active; positive | Test System: AMES SALMONELLA TYPHIMURIUM, Strain/Indicator: TA100, Metabolic Activation: RABBIT, LIVER, S-9, Method: PREINCUBATION active; positive | Test System: AMES SALMONELLA TYPHIMURIUM, Strain/Indicator: TA100, Metabolic Activation: RAT, LIVER, MICROSOMES AND CYTOSOL, PCB, Method: PREINCUBATION active; positive | Test System: AMES SALMONELLA TYPHIMURIUM, Strain/Indicator: TA100, Metabolic Activation: RAT, LIVER, MICROSOMES AND G6PDH, PCB, Method: PREINCUBATION active; positive | Test System: AMES SALMONELLA TYPHIMURIUM, Strain/Indicator: TA100, Metabolic Activation: RAT, LIVER, MICROSOMES, PCB, Method: PREINCUBATION active; positive | Test System: AMES SALMONELLA TYPHIMURIUM, Strain/Indicator: TA100, Metabolic Activation: RAT, LIVER, S-9, PCB, Method: PREINCUBATION active; positive | Test System: AMES SALMONELLA TYPHIMURIUM, Strain/Indicator: TA100, Metabolic Activation: RAT, LIVER, S-9, PHENOBARBITAL, Method: PREINCUBATION active; positive | Test System: AMES SALMONELLA TYPHIMURIUM, Strain/Indicator: TA100, Method: PREINCUBATION active; positive | Test System: CHINESE HAMSTER V-79, Strain/Indicator: V-79/OUABAIN, Metabolic Activation: HAMSTER, HEPATOCYTES, Method: CELL-MEDIATED active; positive
inactive: Test System: AMES SALMONELLA TYPHIMURIUM, Strain/Indicator: TA100, Metabolic Activation: HUMAN, LIVER, S-9, Method: PREINCUBATION inactive; negative | [1] inactive; negative | Test System: AMES SALMONELLA TYPHIMURIUM, Strain/Indicator: TA100, Metabolic Activation: RAT, LIVER, CYTOSOL, PCB, Method: PREINCUBATION inactive; negative | Test System: AMES SALMONELLA TYPHIMURIUM, Strain/Indicator: TA100, Metabolic Activation: RAT, LIVER, S-9 (HEATED), PCB, Method: PREINCUBATION inactive; negative | Test System: AMES SALMONELLA TYPHIMURIUM, Strain/Indicator: TA100, Metabolic Activation: RAT, LIVER, S-9, 3-METHYLCHOLANTHRENE, Method: PREINCUBATION inactive; negative | Test System: AMES SALMONELLA TYPHIMURIUM, Strain/Indicator: TA100, Metabolic Activation: RAT, LIVER, S-9 WITHOUT NADP+, PCB, Method: PREINCUBATION inactive; negative

CCN(CC)c1cc(NC(C)=O)c(N=Nc2c(Cl)cc([N+](=O)[O-])cc2[N+](=O)[O-])cc1OC
inactive: End Point: IN VITRO CHROMOSOMAL ABERRATIONS, Test System: CHL CELLS, Metabolic Activation: RAT, LIVER, S-9, SODIUM PHENOBARBITAL AND 5,6-BENZOFLAVONE inactive; negative

OCCN1CCN(CCCN2c3ccccc3Sc3ccc(C(F)(F)F)cc32)CC1
inactive: Test System: AMES SALMONELLA TYPHIMURIUM, Strain/Indicator: TA98, Metabolic Activation: NONE inactive; negative | Test System: AMES SALMONELLA TYPHIMURIUM, Strain/Indicator: TA98, Metabolic Activation: RAT, LIVER, S-9, PHENOBARBITAL AND 5,6-BENZOFLAVONE inactive; negative | Test System: AMES SALMONELLA TYPHIMURIUM, Strain/Indicator: TA100, Metabolic Activation: NONE inactive; negative | Test System: AMES SALMONELLA TYPHIMURIUM, Strain/Indicator: TA100, Metabolic Activation: RAT, LIVER, S-9, PHENOBARBITAL AND 5,6-BENZOFLAVONE inactive; negative | Test System: AMES SALMONELLA TYPHIMURIUM, Strain/Indicator: TA1535, Metabolic Activation: NONE inactive; negative | Test System: AMES SALMONELLA TYPHIMURIUM, Strain/Indicator: TA1535, Metabolic Activation: RAT, LIVER, S-9, PHENOBARBITAL AND 5,6-BENZOFLAVONE inactive; negative | Test System: AMES SALMONELLA TYPHIMURIUM, Strain/Indicator: TA1537, Metabolic Activation: NONE inactive; negative | Test System: AMES SALMONELLA TYPHIMURIUM, Strain/Indicator: TA1537, Metabolic Activation: RAT, LIVER, S-9, PHENOBARBITAL AND 5,6-BENZOFLAVONE inactive; negative | Test System: E. COLI, Strain/Indicator: WP2 UVRA, Metabolic Activation: NONE inactive; negative | Test System: E. COLI, Strain/Indicator: WP2 UVRA, Metabolic Activation: RAT, LIVER, S-9, PHENOBARBITAL AND 5,6-BENZOFLAVONE inactive; negative

CN(C)C(=O)Nc1cccc(C(F)(F)F)c1
active: Test System: AMES SALMONELLA TYPHIMURIUM, Strain/Indicator: TA1535, Metabolic Activation: RAT, LIVER, S-9, Method: STANDARD PLATE active; positive
inactive: End Point: IN VITRO CHROMOSOMAL ABERRATIONS, Test System: CHO-LB CELLS, Metabolic Activation: NONE inactive; negative | End Point: IN VITRO CHROMOSOMAL ABERRATIONS, Test System: CHO-LB CELLS, Metabolic Activation: RAT, LIVER, S-9, AROCLOR 1254 inactive; negative | Test System: AMES SALMONELLA TYPHIMURIUM, Strain/Indicator: TA97, Metabolic Activation: HAMSTER, LIVER, S-9, AROCLOR 1254 (10 OR 30%), Method: PREINCUBATION inactive; negative | Test System: AMES SALMONELLA TYPHIMURIUM, Strain/Indicator: TA97, Metabolic Activation: NONE, Method: PREINCUBATION inactive; negative | Test System: AMES SALMONELLA TYPHIMURIUM, Strain/Indicator: TA97, Metabolic Activation: RAT, LIVER, S-9, AROCLOR 1254 (10 OR 30%), Method: PREINCUBATION inactive; negative | Test System: AMES SALMONELLA TYPHIMURIUM, Strain/Indicator: TA98, Metabolic Activation: HAMSTER, LIVER, S-9, AROCLOR 1254 (10 OR 30%), Method: PREINCUBATION inactive; negative | Test System: AMES SALMONELLA TYPHIMURIUM, Strain/Indicator: TA98, Metabolic Activation: NONE, Method: PREINCUBATION inactive; negative | Test System: AMES SALMONELLA TYPHIMURIUM, Strain/Indicator: TA98, Metabolic Activation: RAT, LIVER, S-9, AROCLOR 1254 (10 OR 30%), Method: PREINCUBATION inactive; negative | Test System: AMES SALMONELLA TYPHIMURIUM, Strain/Indicator: TA100, Metabolic Activation: HAMSTER, LIVER, S-9, AROCLOR 1254 (10 OR 30%), Method: PREINCUBATION inactive; negative | [1] inactive; negative | Test System: AMES SALMONELLA TYPHIMURIUM, Strain/Indicator: TA100, Metabolic Activation: RAT, LIVER, S-9, AROCLOR 1254 (10 OR 30%), Method: PREINCUBATION inactive; negative | Test System: AMES SALMONELLA TYPHIMURIUM, Strain/Indicator: TA1535, Metabolic Activation: HAMSTER, LIVER, S-9, AROCLOR 1254 (10 OR 30%), Method: PREINCUBATION inactive; negative | Test System: AMES SALMONELLA TYPHIMURIUM, Strain/Indicator: TA1535, Metabolic Activation: NONE, Method: PREINCUBATION inactive; negative | Test System: AMES SALMONELLA TYPHIMURIUM, Strain/Indicator: TA1535, Metabolic Activation: RAT, LIVER, S-9, AROCLOR 1254 (10 OR 30%), Method: PREINCUBATION inactive; negative | Test System: E. COLI, Strain/Indicator: WP2 UVRA, Metabolic Activation: HAMSTER, LIVER, S-9, AROCLOR 1254, Method: STANDARD PLATE inactive; negative | Test System: E. COLI, Strain/Indicator: WP2 UVRA, Metabolic Activation: HAMSTER, LIVER, S-9, Method: STANDARD PLATE inactive; negative | Test System: E. COLI, Strain/Indicator: WP2 UVRA, Metabolic Activation: MOUSE, LIVER, S-9, AROCLOR 1254, Method: STANDARD PLATE inactive; negative | Test System: E. COLI, Strain/Indicator: WP2 UVRA, Metabolic Activation: MOUSE, LIVER, S-9, Method: STANDARD PLATE inactive; negative | Test System: E. COLI, Strain/Indicator: WP2 UVRA, Metabolic Activation: NONE, Method: STANDARD PLATE inactive; negative | Test System: E. COLI, Strain/Indicator: WP2 UVRA, Metabolic Activation: RAT, LIVER, S-9, AROCLOR 1254, Method: STANDARD PLATE inactive; negative | Test System: E. COLI, Strain/Indicator: WP2 UVRA, Metabolic Activation: RAT, LIVER, S-9, Method: STANDARD PLATE inactive; negative
